Measured values taken from PubChem BioAssay (NCI).
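Growth conditions: 96-well plates. Treatment: test compound, 48 hours, 5 concentrations. Analysis: linear interpolation between bracketing concentrations; unreached endpoints set to highest concentration. TGI is the concentration that stops growth completely.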

Experiments:
Assay in all cases: NCI-60 cell line screen, 48 h
[1] = test system: EKVX NSCLC
[2] = test system: HCC-2998 colon
[3] = test system: HCT-116 colon
[4] = test system: IGROV1 ovarian
[5] = test system: MDA-MB-435
[6] = test system: MDA-N
[7] = test system: OVCAR-5 ovarian
[8] = test system: SF-295 CNS
[9] = test system: SK-MEL-2 melanoma
[10] = test system: SNB-19 CNS
[11] = test system: COLO 205 colon

Row | SMILES | TGI [1] | TGI [2] | TGI [3] | TGI [4] | TGI [5] | TGI [6] | TGI [7] | TGI [8] | TGI [9] | TGI [10] | TGI [11]
1 | CCc1nn(CN2CCN(C)CC2)c(=S)n1/N=C\c1ccc(-c2ccc([N+](=O)[O-])cc2)o1 | > 100 µM | > 100 µM | > 100 µM | > 100 µM | > 100 µM | > 100 µM | > 100 µM | > 100 µM | > 100 µM | > 100 µM | –
2 | CN(C)c1nc2sc3c(c2c(=O)o1)CCCC3 | > 100 µM | > 100 µM | > 100 µM | > 100 µM | > 100 µM | > 100 µM | > 100 µM | > 100 µM | 99.4 µM | > 100 µM | 53.1 µM
3 | CC1(C)O[C@H]2Cn3c(c(C#N)c4ccccc43)[C@H]2O1 | > 100 µM | > 100 µM | > 100 µM | > 100 µM | > 100 µM | > 100 µM | > 100 µM | > 100 µM | > 100 µM | > 100 µM | > 100 µM
4 | CCOC(=O)c1cn(-c2ccccc2)c(=S)n2c1nc1ccccc12 | > 100 µM | 96.9 µM | > 100 µM | > 100 µM | > 94.8 µM | > 100 µM | > 100 µM | > 100 µM | > 100 µM | > 100 µM | > 64.8 µM
5 | CN1C/C(=C\c2cccs2)C2=NC(=S)NC(c3cccs3)C2C1 (centres undefined) | > 100 µM | > 100 µM | > 100 µM | > 100 µM | > 100 µM | > 100 µM | > 100 µM | > 100 µM | > 100 µM | > 100 µM | > 100 µM
6 | O=S(=O)(c1ccc(Br)cc1)n1c2ccc(Br)cc2c2nc3ccccc3nc21 | > 100 µM | > 100 µM | > 100 µM | > 100 µM | > 100 µM | > 100 µM | > 100 µM | > 100 µM | > 100 µM | > 100 µM | > 100 µM
7 | CC1=NN(C(=O)CSc2nnc(SCC(=O)N3N=C(C)CC3(O)c3ccccc3)s2)C(O)(c2ccccc2)C1 (centres undefined) | > 100 µM | > 100 µM | > 100 µM | > 100 µM | > 100 µM | > 100 µM | > 100 µM | > 100 µM | > 100 µM | > 100 µM | > 100 µM
8 | CC[C@@]1(O)C(=O)OCc2c1cc1n(c2=O)Cc2c-1nc1ccccc1c2/C=N\NC(=O)C(N)CC(C)C (some centres undefined) | > 100 µM | 6.17 µM | 5.37 µM | > 22 µM | 2.8 µM | > 100 µM | > 68.6 µM | 0.694 µM | 2.99 µM | > 100 µM | 12.1 µM
9 | O=C(c1ccccc1)c1ccc2c(c1)nc1n2C(c2c(Cl)cccc2Cl)SC1 (centres undefined) | > 100 µM | > 100 µM | > 100 µM | > 100 µM | > 100 µM | > 100 µM | > 100 µM | > 100 µM | > 100 µM | > 100 µM | > 100 µM
10 | Nc1nc(Cl)cc(NCC2(O)CC(CO)C2)n1 (centres undefined) | > 100 µM | > 100 µM | > 100 µM | > 100 µM | > 100 µM | > 100 µM | > 100 µM | > 100 µM | > 100 µM | > 100 µM | > 100 µM
11 | O=C1c2ccccc2C2CNC1(O)c1ccccc12 (centres undefined) | > 100 µM | > 100 µM | > 100 µM | > 100 µM | > 100 µM | > 100 µM | > 100 µM | > 100 µM | > 100 µM | > 100 µM | > 100 µM
12 | OCC1OC(c2scc3c(=S)nc[nH]c23)C(O)C1O (centres undefined) | > 100 µM | > 97.2 µM | > 84.3 µM | 46.5 µM | > 100 µM | > 100 µM | > 100 µM | > 92.8 µM | > 65.6 µM | > 100 µM | 33.5 µM
13 | Clc1ccc(-c2ccc(-c3nnc(CCc4nnc(-c5ccc(-c6ccc(Cl)cc6)o5)o4)o3)o2)cc1 | > 100 µM | > 100 µM | > 100 µM | > 100 µM | > 100 µM | > 100 µM | > 100 µM | > 100 µM | > 100 µM | > 100 µM | > 100 µM
14 | O=C1c2c(F)c(F)c(F)c(F)c2SC2=NCCN12 | 41.4 µM | 28 µM | 5.24 µM | 17.7 µM | 8.59 µM | 11.9 µM | 29.2 µM | 32.4 µM | 6.52 µM | 29 µM | 19 µM
15 | O=C1c2ccccc2C(=O)N1n1c(Cc2ccccc2)n[nH]c1=O | > 100 µM | > 100 µM | > 100 µM | > 100 µM | > 100 µM | > 100 µM | > 100 µM | > 100 µM | > 100 µM | > 100 µM | > 100 µM
16 | CC[n+]1cnc(N)c2c(-c3ccc(Cl)cc3)cn(-c3ccc(C)cc3)c21 | 30.8 µM | 14.8 µM | 21.3 µM | 26.5 µM | 23.7 µM | 25 µM | 29.7 µM | 25.3 µM | 36 µM | 28.8 µM | 17.1 µM
17 | CCOC(=O)CCCn1nnc(C(=O)OCC)c1C(=O)OCC | > 100 µM | > 100 µM | > 100 µM | > 100 µM | > 100 µM | > 100 µM | – | > 100 µM | > 100 µM | > 100 µM | > 100 µM
18 | COC(=O)c1cn(CCCC(=O)O)nn1 | > 100 µM | > 100 µM | > 100 µM | > 100 µM | > 100 µM | > 100 µM | – | > 100 µM | > 100 µM | > 100 µM | > 100 µM
19 | CC1=NN(c2nc(N)nc(-c3ccccc3S(N)(=O)=O)n2)C(C)(C)C1 | > 100 µM | > 100 µM | > 100 µM | > 100 µM | > 100 µM | > 100 µM | > 100 µM | > 100 µM | 57 µM | – | –
20 | COc1cc(/C=C/C(=O)OCC23CC[C@@]4(C(=O)O)CCC(C)[C@H](C)C4C2=CCC2[C@@]4(C)CC[C@H](O)C(C)(C)C4CC[C@]23C)ccc1O (some centres undefined) | 33.1 µM | > 100 µM | 46.4 µM | 57.2 µM | 57 µM | 60.7 µM | 46.4 µM | 73.9 µM | 47.5 µM | > 100 µM | –
